From patent US7232837B2, “Stereoisomers with high affinity for adrenergic receptors” (McNeil-PPC, Inc., priority 1999, dated 2007)
Structures can show the parent of a compound that is named as a salt.

Columns and labels:
[1] = tested on: New Zealand white rabbits; experiment: Pupil diameter / mydriasis after topical application to the rabbit eye; format: in vivo; parameters: key to Mydriatic Responses, UNTREATED EYE: 0 = No change; + = 0–2 mm change; ++ = 2–4 mm change; settings: for Pupil Diameter: mean ± S.E.
Procedure: (§1) These diastereomers were administered topically as either 1% or 2% solutions in buffered saline. Pupillary diameter and IOP were measured in all animals over a six hour time period during the day to minimize diurnal variations in IOP and pupil diameter.
(§2) The experiments were performed on adult male New Zealand white rabbits weighing 3.0–6.0 kg. All rabbits were caged individually and maintained on a 12 hr/12 hr light/dark schedule with free access to food and water. All animal procedures were in conformity with the ARVO Resolution on the Use and Care of Animals in Research. All treated rabbits had served as controls by having received a saline treatment on a different day.
(§3) Only one eye received drug treatment. The contralateral eye served as a control. Saline (or PBS) and drug treated rabbits were treated and observed simultaneously. A single dose was given at time zero and IOP and pupil diameter measured at −1.0, −0.5, 0.5, 1, 3 and 5 hrs post-treatment.
Pupil diameter was measured visually at the point of the greatest horizontal diameter with a transparent millimeter ruler. All measurements were made under the identical ambient lighting conditions.
(§4) Mean and Standard Error values were used to construct time-response and dose-response curves for the treated and contralateral eye of research rabbits. The data were analyzed statistically by an analysis of variance and a Bonferoni's test for significance. P<0.05 was the accepted level of significance.

[2] = tested on: New Zealand white rabbits; experiment: Intraocular pressure (IOP) after topical application to the rabbit eye; format: in vivo; settings: for IOP: mean ± S.E.
Procedure: as §1, §2, §3
IOP measurements were recorded with an Alcon Applanation Pneumotonograph (Surgical Products Division, Alcon Laboratories, Inc., Ft. Worth, Tex.) in rabbits placed in Lucite restraining cages. Initial topical application of a two drop 0.5% proparacaine HCl (Ophthetic®, Allergan Pharmaceuticals, Inc.) was performed on each rabbit.
as §4

[3] = 1% topical, drug treated eye (T), 0.5 hr
[4] = 1% topical, drug treated eye (T), 1 hr
[5] = 1% topical, drug treated eye (T), 3 hr
[6] = 1% topical, drug treated eye (T), 5 hr
[7] = 1% topical, drug treated eye (T), −0.5 hr (pre-treatment)
[8] = 1% topical, drug treated eye (T), −1 hr (pre-treatment)
[9] = 1% topical, untreated contralateral eye (U), 0.5 hr
[10] = 1% topical, untreated contralateral eye (U), 1 hr
[11] = 1% topical, untreated contralateral eye (U), 3 hr
[12] = 1% topical, untreated contralateral eye (U), 5 hr
[13] = 1% topical, untreated contralateral eye (U), −0.5 hr (pre-treatment)
[14] = 1% topical, untreated contralateral eye (U), −1 hr (pre-treatment)
[15] = 2% topical, drug treated eye (T), 0.5 hr
[16] = 2% topical, drug treated eye (T), 1 hr
[17] = 2% topical, drug treated eye (T), 3 hr
[18] = 2% topical, drug treated eye (T), 5 hr
[19] = 2% topical, drug treated eye (T), −0.5 hr (pre-treatment)
[20] = 2% topical, drug treated eye (T), −1 hr (pre-treatment)
[21] = 2% topical, untreated contralateral eye (U), 0.5 hr
[22] = 2% topical, untreated contralateral eye (U), 1 hr
[23] = 2% topical, untreated contralateral eye (U), 3 hr
[24] = 2% topical, untreated contralateral eye (U), 5 hr
[25] = 2% topical, untreated contralateral eye (U), −0.5 hr (pre-treatment)
[26] = 2% topical, untreated contralateral eye (U), −1 hr (pre-treatment)

## C[C@H](N)[C@H](O)c1cccc(O)c1 [Metaraminol Bitartrate Salt, USP, metaraminol bitartrate salt, reference compound]
[1]; 1% or 2% topical, rabbit
  mydriasis / pupil diameter (result in words): produced mydriasis
[1]; 1% topical
  Mydriatic Responses, TREATED EYE: ++ (++ = 2–4 mm change)
  Mydriatic Responses, UNTREATED EYE: 0
[1]; [3]
  Pupil Diameter: 9 ± 0.5 mm
[1]; [4]
  Pupil Diameter: 9 ± 0.5 mm
[1]; [5]
  Pupil Diameter: 9 ± 0.2 mm
[1]; [6]
  Pupil Diameter: 9 ± 0.5 mm
[1]; [7]
  Pupil Diameter: 7 ± 0.5 mm
[1]; [8]
  Pupil Diameter: 7 ± 0.5 mm
[1]; [9]
  Pupil Diameter: 7 ± 0.5 mm
[1]; [10]
  Pupil Diameter: 7 ± 0.5 mm
[1]; [11]
  Pupil Diameter: 7 ± 0.5 mm
[1]; [12]
  Pupil Diameter: 7 ± 0.5 mm
[1]; [13]
  Pupil Diameter: 7 ± 0.5 mm
[1]; [14]
  Pupil Diameter: 7 ± 0.5 mm
[1]; [15]
  Pupil Diameter: 10 ± 0.2 mm
[1]; [16]
  Pupil Diameter: 10 ± 0.2 mm
[1]; [17]
  Pupil Diameter: 10 ± 0.2 mm
[1]; [18]
  Pupil Diameter: 10 ± 0.2 mm
[1]; [19]
  Pupil Diameter: 5 ± 0.2 mm
[1]; [20]
  Pupil Diameter: 5 ± 0.2 mm
[1]; [21]
  Pupil Diameter: 10 ± 0.2 mm
[1]; [22]
  Pupil Diameter: 10 ± 0.2 mm
[1]; [23]
  Pupil Diameter: 10 ± 0.2 mm
[1]; [24]
  Pupil Diameter: 10 ± 0.2 mm
[1]; [25]
  Pupil Diameter: 5 ± 0.2 mm
[1]; [26]
  Pupil Diameter: 5 ± 0.2 mm
[2]; 1% or 2% topical, rabbit
  effect on IOP (result in words): accompanying increase in IOP
[2]; [3]
  IOP: 25 ± 1.2 mmHg
[2]; [4]
  IOP: 24 ± 1.3 mmHg
[2]; [5]
  IOP: 21 ± 2.8 mmHg
[2]; [6]
  IOP: 21 ± 2.7 mmHg
[2]; [7]
  IOP: 19 ± 1.3 mmHg
[2]; [8]
  IOP: 21 ± 2.3 mmHg
[2]; [9]
  IOP: 18 ± 1.7 mmHg
[2]; [10]
  IOP: 18 ± 1.0 mmHg
[2]; [11]
  IOP: 19 ± 1.4 mmHg
[2]; [12]
  IOP: 17 ± 0.8 mmHg
[2]; [13]
  IOP: 16 ± 1.1 mmHg
[2]; [14]
  IOP: 18 ± 1.4 mmHg
[2]; [15]
  IOP: 15 ± 1.1 mmHg
[2]; [16]
  IOP: 16 ± 3.6 mmHg
[2]; [17]
  IOP: 14 ± 2.0 mmHg
[2]; [18]
  IOP: 13 ± 0.8 mmHg
[2]; [19]
  IOP: 14 ± 0.9 mmHg
[2]; [20]
  IOP: 15 ± 0.7 mmHg
[2]; [21]
  IOP: 19 ± 1.1 mmHg
[2]; [22]
  IOP: 18 ± 0.8 mmHg
[2]; [23]
  IOP: 19 ± 1.1 mmHg
[2]; [24]
  IOP: 21 ± 1.6 mmHg
[2]; [25]
  IOP: 15 ± 0.7 mmHg
[2]; [26]
  IOP: 17 ± 1.2 mmHg

## Mephentermine Hemisulfate Salt [reference compound]
[1]; 1% topical
  Mydriatic Responses, TREATED EYE: ++ (++ = 2–4 mm change)
  Mydriatic Responses, UNTREATED EYE: 0
[1]; [3]
  Pupil Diameter: 10 ± 0.2 mm
[1]; [4]
  Pupil Diameter: 10 ± 0.2 mm
[1]; [5]
  Pupil Diameter: 10 ± 0.2 mm
[1]; [6]
  Pupil Diameter: 10 ± 0.2 mm
[1]; [7]
  Pupil Diameter: 7 ± 0.2 mm
[1]; [8]
  Pupil Diameter: 7 ± 0.2 mm
[1]; [9]
  Pupil Diameter: 7 ± 0.2 mm
[1]; [10]
  Pupil Diameter: 7 ± 0.2 mm
[1]; [11]
  Pupil Diameter: 7 ± 0.2 mm
[1]; [12]
  Pupil Diameter: 7 ± 0.2 mm
[1]; [13]
  Pupil Diameter: 7 ± 0.2 mm
[1]; [14]
  Pupil Diameter: 7 ± 0.2 mm
[1]; 2% topical
  Mydriatic Responses, TREATED EYE: + (+ = 0–2 mm change)
  Mydriatic Responses, UNTREATED EYE: 0
[1]; [15]
  Pupil Diameter: 7 ± 0.7 mm
[1]; [16]
  Pupil Diameter: 8 ± 0.7 mm
[1]; [17]
  Pupil Diameter: 6 ± 0.4 mm
[1]; [18]
  Pupil Diameter: 6 ± 0.4 mm
[1]; [19]
  Pupil Diameter: 6 ± 0.3 mm
[1]; [20]
  Pupil Diameter: 6 ± 0.3 mm
[1]; [21]
  Pupil Diameter: 6 ± 0.3 mm
[1]; [22]
  Pupil Diameter: 6 ± 0.3 mm
[1]; [23]
  Pupil Diameter: 6 ± 0.3 mm
[1]; [24]
  Pupil Diameter: 6 ± 0.3 mm
[1]; [25]
  Pupil Diameter: 6 ± 0.4 mm
[1]; [26]
  Pupil Diameter: 6 ± 0.4 mm
[2]; [3]
  IOP: 24 ± 1.0 mmHg
[2]; [4]
  IOP: 24 ± 0.7 mmHg
[2]; [5]
  IOP: 22 ± 0.9 mmHg
[2]; [6]
  IOP: 18 ± 1.6 mmHg
[2]; [7]
  IOP: 18 ± 1.8 mmHg
[2]; [8]
  IOP: 19 ± 1.7 mmHg
[2]; [9]
  IOP: 20 ± 2.1 mmHg
[2]; [10]
  IOP: 17 ± 1.6 mmHg
[2]; [11]
  IOP: 20 ± 1.4 mmHg
[2]; [12]
  IOP: 17 ± 1.5 mmHg
[2]; [13]
  IOP: 17 ± 1.0 mmHg
[2]; [14]
  IOP: 17 ± 1.1 mmHg
[2]; [15]
  IOP: 23 ± 2.2 mmHg
[2]; [16]
  IOP: 23 ± 2.2 mmHg
[2]; [17]
  IOP: 21 ± 2.3 mmHg
[2]; [18]
  IOP: 23 ± 1.5 mmHg
[2]; [19]
  IOP: 19 ± 2.0 mmHg
[2]; [20]
  IOP: 21 ± 2.3 mmHg
[2]; [21]
  IOP: 18 ± 1.6 mmHg
[2]; [22]
  IOP: 16 ± 1.0 mmHg
[2]; [23]
  IOP: 18 ± 0.8 mmHg
[2]; [24]
  IOP: 20 ± 1.7 mmHg
[2]; [25]
  IOP: 17 ± 2.1 mmHg
[2]; [26]
  IOP: 18 ± 2.2 mmHg
